Test results: US20260159497A1, “SOLID FORMS OF A COMPLEMENT FACTOR B INHIBITOR” (Novartis Pharma AG, priority 2022, published 2026)
Values after ≈ are worked out from the molar mass of the structure shown. Read-outs that look alike come from different tables or passages of the source.

Legend:
[1] = Water content by Karl Fischer titration; assay type: physicochemical; settings: ambient conditions; relative to total weight of the salt / free form
[2] = Dynamic vapor sorption (DVS) mass change; assay type: physicochemical; settings: for Mass change by DVS, Desorption (%) / Mass change by DVS, Sorption (%): Table 5, 25 degree C., based on dry weight
Description: [table] The mass change by DVS isotherm (2 cycles 40-0-95-0-40% RH) are in the tables below. The mass change is based on the dry weight of each.

[3] = Solubility in water and biorelevant buffers at 25° C.; assay type: physicochemical; settings: 25° C., 24 h; for solubility at 24 h: thermodynamic from solid, read-out: Solubility (mg/mL) S
Procedure: Purchase sodium taurocholate (NaTC) from supplier. Account for assay. Add amount corresponding to 3 mM to PBS V1. Stir until dissolved. Equilibrate 1 h at 25° C. or 37° C. before use. Dispose after 48 h.
Purchase FaSSIF-V2 from supplier (biorelevant.com). Amount added to PBS-V1 according to Table 1. Stir until dissolved. Equilibrate 1 h at 25° C. or 37° C. before use. Dispose after 48 h.
Purchase FeSSIF-V2 from supplier (biorelevant.com). Amount added to PBS-V1 according to Table 1. Stir until dissolved. Equilibrate 1 h at 25° C. or 37° C. before use. Dispose after 48 h.

[4] = Intrinsic dissolution rate; assay type: physicochemical
[5] = Compression stability (XRPD after compression); assay type: physicochemical; settings: 4 tons of compression for 5 min
Description: Method: […] Afterwards, characterize the sample by XRPD to detect any change in the solid state.

[6] = Grinding and wet granulation; assay type: physicochemical
Description: Method: Granulate was obtained in solid-state forms. […] Dry the wet-cake under vacuum or at atmospheric pressure. Evaluate solid form and degree of crystallinity by e.g. XRPD and/or DSC.

[7] = Solubility in Simulated Fluids at 37° C.; assay type: physicochemical; settings: for solubility at 30 min / solubility at 24 h: 37 °C, thermodynamic from solid; for solubility at 30 min: read-out: Solubility (mg/mL) 30 min; for solubility at 24 h: read-out: Solubility (mg/mL) 24 h
Description: Solubility data of Form A (S)-4-(2,2-difluoro-7-((5-methoxy-7-methyl-1H-indol-4-yl)methyl)-7-azaspiro[3.5]nonan-6-yl)benzoic acid, Form B (S)-4-(2,2-difluoro-7-((5-methoxy-7-methyl-1H-indol-4-yl)methyl)-7-azaspiro[3.5]nonan-6-yl)benzoic acid p-toluene sulfonic acid salt, Form C (S)-4-(2,2-difluoro-7-((5-methoxy-7-methyl-1H-indol-4-yl)methyl)-7-azaspiro[3.5]nonan-6-yl)benzoic acid p-toluene sulfonic acid salt, and Form D (S)-4-(2,2-difluoro-7-((5-methoxy-7-methyl-1H-indol-4-yl)methyl)-7-azaspiro[3.5]nonan-6-yl)benzoic acid hydrochloride salt in Simulated Fluids at 37° C.

[8] = Stability of Forms A and B under stress conditions (temperature/humidity, capsules, light)
[9] = pH 2.0, 0.01 M HCl, 37° C., 100 rpm, 120 min
[10] = pH 6.5, phosphate buffer 50 mM (PBS-V1), 37° C., 100 rpm, 120 min

In the case of `COc1cc(C)c2[nH]ccc2c1CN1CCC2(C[C@H]1c1ccc(C(=O)O)cc1)CC(F)(F)C2` [Form A, (S)-4-(2,2-difluoro-7-((5-methoxy-7-methyl-1H-indol-4-yl)methyl)-7-azaspiro[3.5]nonan-6-yl)benzoic acid], the “water content by Karl Fischer titration” value [1] is reported as 0.15 % w/w, the “moisture absorbed by DVS (absorbs up to)” value ([2]; 95% RH at 25° C.) is reported as “up to 0.45%” and the “Mass change by DVS, Desorption (%)” value ([2]; 0% RH) is reported as −0.01%. The “Mass change by DVS, Sorption (%)” value ([2]; 0% RH) was 0.00%, the “Mass change by DVS, Desorption (%)” value ([2]; 10% RH) was 0.06% and the “Mass change by DVS, Sorption (%)” value ([2]; 10% RH) was 0.04%. The “Mass change by DVS, Desorption (%)” value ([2]; 20% RH) was 0.12%, the “Mass change by DVS, Sorption (%)” value ([2]; 20% RH) was 0.08% and the “Mass change by DVS, Desorption (%)” value ([2]; 30% RH) was 0.17%. The “Mass change by DVS, Sorption (%)” value ([2]; 30% RH) was 0.13%, the “Mass change by DVS, Desorption (%)” value ([2]; 40% RH) was 0.22% and the “Mass change by DVS, Sorption (%)” value ([2]; 40% RH) was 0.17%. For the same compound, the “Mass change by DVS, Desorption (%)” value ([2]; 50% RH) was 0.26%, the “Mass change by DVS, Sorption (%)” value ([2]; 50% RH) was 0.22% and the “Mass change by DVS, Desorption (%)” value ([2]; 60% RH) was 0.32%. For the same compound, the “Mass change by DVS, Sorption (%)” value ([2]; 60% RH) was 0.26%, the “Mass change by DVS, Desorption (%)” value ([2]; 70% RH) was 0.35% and the “Mass change by DVS, Sorption (%)” value ([2]; 70% RH) was 0.30%. The “Mass change by DVS, Desorption (%)” value ([2]; 80% RH) was 0.38%, the “Mass change by DVS, Sorption (%)” value ([2]; 80% RH) was 0.35% and the “Mass change by DVS, Desorption (%)” value ([2]; 90% RH) was 0.42%. For the same compound, the “Mass change by DVS, Sorption (%)” value ([2]; 90% RH) was 0.40%, the “Mass change by DVS, Desorption (%)” value ([2]; 95% RH) was 0.45% and the “Mass change by DVS, Sorption (%)” value ([2]; 95% RH) was 0.45%. For the same compound, the “pH of solubility sample (pH)” value ([3]; FaSSGF, pH 1.6) was 1.68, the “pH of solubility sample (pH)” value ([3]; PBS-V1 + 3 mM NaTC, pH 6.5) was 6.51 and the “pH of solubility sample (pH)” value ([3]; PBS-V1 + 0.3 FeSSIF-V2, pH 6.5) was 6.52. For the same compound, the “pH of solubility sample (pH)” value ([3]; PBS-V1 + 2.0 FeSSIF-V2, pH 6.5) was 6.73, the “pH of solubility sample (pH)” value ([3]; PBS-V1 + FaSSIF-V2, pH 6.5) was 6.69 and the “pH of solubility sample (pH)” value ([3]; PBS-V1 + FeSSIF-V2, pH 6.5) was 6.74. For the same compound, the solubility at 24 h ([3]; fassgf or other biorelevant, FaSSGF, pH 1.6) was > 2 mg/mL, the solubility at 24 h ([3]; fassgf or other biorelevant, PBS-V1 + 3 mM NaTC, pH 6.5) was 0.068 mg/mL and the solubility at 24 h ([3]; fassgf or other biorelevant, PBS-V1 + 0.3 FeSSIF-V2, pH 6.5) was 0.074 mg/mL. It also gave a solubility at 24 h ([3]; fassgf or other biorelevant, PBS-V1 + 2.0 FeSSIF-V2, pH 6.5) of 0.12 mg/mL, a solubility at 24 h ([3]; PBS-V1 + FaSSIF-V2, pH 6.5) of 0.072 mg/mL and a solubility at 24 h ([3]; PBS-V1 + FeSSIF-V2, pH 6.5) of 0.094 mg/mL. The solubility at 24 h ([3]; water) was 0.052 mg/mL (≈ 114 µM), the “pH of solubility sample (pH)” value ([3]; water) was 7.40 and the intrinsic dissolution rate ([4]; PBS-V1 (pH 6.5)) was 0.0028 mg/min/cm^2. The intrinsic dissolution rate ([4]; pH 2.0, 0.01 M HCl) was 0.081 mg/min/cm^2, the “form change after intrinsic dissolution” value [4, 9] was “(No form change)” and the intrinsic dissolution rate [4, 9] was 0.081 mg · min^−1 · cm^−2. The “form change after intrinsic dissolution” value [4, 10] was “(No form change)”, the intrinsic dissolution rate [4, 10] was 0.0028 mg · min^−1 · cm^−2 and the “form change in XRPD after compression” value [5] was “no form change”. For the same compound, the “crystallinity from XRPD pattern after grinding” value ([6]; after grinding) was “crystallinity decrease”, the “form change after grinding and wet granulation” value ([6]; dry grinding (2 min and 5 min) and wet granulation (water and ethanol)) was “did not lead to any form change” and the solubility at 30 min ([7]; fassgf or other biorelevant, FaSSGF, 30 min) was 2.28 mg/mL (≈ 5020 µM). The solubility at 24 h ([7]; fassgf or other biorelevant, FaSSGF, 24 h) was > 2 mg/mL, the solubility at 30 min ([7]; fassif, FaSSIF, 30 min) was 0.24 mg/mL (≈ 528 µM) and the solubility at 24 h ([7]; fassif, FaSSIF, 24 h) was 0.18 mg/mL (≈ 396 µM). It also gave a solubility at 30 min ([7]; fessif, FeSSIF, 30 min) of 0.31 mg/mL (≈ 682 µM), a solubility at 24 h ([7]; fessif, FeSSIF, 24 h) of 0.31 mg/mL (≈ 682 µM) and a solubility at 30 min ([7]; pH 7, water, Water, initial pH 7.00, 30 min) of 0.21 mg/mL (≈ 462 µM). For the same compound, the solubility at 24 h ([7]; pH 7, water, Water, initial pH 7.00, 24 h) was 0.22 mg/mL (≈ 484 µM), the “pH at 24 h” value ([7]; FaSSGF) was 1.61 and the “pH at 24 h” value ([7]; FaSSIF) was 6.48. For the same compound, the “pH at 24 h” value ([7]; FeSSIF) was 5.00, the “pH at 24 h” value ([7]; Water, initial pH 7.00) was 7.12 and the “stability in HPMC and HGC capsules” value ([8]; 50° C. with 11% and 75% RH for 2 weeks) was “chemically and physically stable”. The “degradation under light stress” value ([8]; 1200 kLux light stress) was “about 0.9%”, the “form change by XRPD after humidity exposure” value ([8]; exposed to 80% or 92% RH for 24 hrs) was “no change” and the “chemical stability in bulk state” value ([8]; stored at 50° C. with 11% RH or 75% RH for 1 week) was “chemically stable”. The “discoloration in bulk state” value ([8]; stored at 80° C. with 11% RH or 75% RH) was “slight to medium discoloration” and the “polymorphic form in the stress conditions” value ([8]; temperature/humidity and light stress conditions) was “unchanged”.
